Measurements reported in article PMC6923382, “Small molecules that inhibit TNF signalling by stabilising an asymmetric form of the trimer” (Nature Communications, 2019).
Several values for one entry are separate records, joined by “and”; a condition that tells them apart may be missing. Identical values can stand only once.

Tests used:
[1] = target: T1, TNF (Homo sapiens, UniProt P01375); assay: TNF reporter gene assay HEK-293, human TNF; type: cell-based; parameters: stabilise an asymmetrical form of the soluble TNF trimer
T1 sequence (P01375 77-233 limits assumed): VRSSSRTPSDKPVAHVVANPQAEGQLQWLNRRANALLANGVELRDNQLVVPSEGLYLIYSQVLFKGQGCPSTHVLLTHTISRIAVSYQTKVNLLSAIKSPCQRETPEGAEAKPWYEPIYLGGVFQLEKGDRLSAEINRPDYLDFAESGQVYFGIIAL
Experimental: Stimulation of HEK-293 cells by TNF leads to activation of the NF-κB pathway. The HEK-Blue^TM CD40L SEAP (secreted embryonic alkaline phosphatase) reporter cell line used to determine TNF activity (InvivoGen, #hkb-CD40, cells were described as mycoplasma free when purchased and were tested using Mycoalert [Lonza] after each batch of assay vial preparation). […] Cells were added to the compound/stimulus mixture and further incubated for 18 h. SEAP was measured using the colorimetric substrate HEK-Blue Detect^TM or QUANTI-Blue^TM from InvivoGen. […] The IC50 was determined as the point of inflexion between the fitted minimum and maximum of the compound dose response curve, calculated using 4PL fitted curve. Mean IC50s are reported as a mean of at least two experiments.

[2] = tested on: Mouse TNF superfamily; assay: Thermal denaturation, mouse TNF superfamily; type: binding; settings: 100 µM compound, 0.1 mg/mL sample; single experiment
Experimental: (§1) A fluorescence probed thermal denaturation assay was performed to assess the effect of the compounds on the thermal stability of TNF (or other members of the TNF family) as a measure of compound binding. The reaction mixture contained 5 µL of 30× SYPRO® Orange dye (Invitrogen) and 5 µL of TNF (at 1 mg/mL), 37.5 μL PBS, pH 7.4 and 2.5 μL of compound (at 2 mM in DMSO). The mixture (10 µL) was dispensed in quadruplicate into a 384 PCR optical well plate and was run on a 7900HT Fast Real-Time PCR System ([…]). The PCR System heating device was set at 20 °C to 99 °C with a ramp rate of 1.1 °C min^−1; fluorescence changes in the wells were monitored by a CCD device. The fluorescence intensity increase was plotted as a function of temperature and the Tm calculated as the midpoint of this denaturation curve (determined as the point of inflection).
Compound based thermal stability increase (oC)
100 µM compound 0.1 mg/mL sample […]
compared to human TNF. Human proteins were provided through a collaboration with Beryllium. Data from a single experiment. […]
compared to mouse TNF. Mouse proteins were purchased from R&D Systems. (Note: No Tm for Lymphotoxin (LTa) was detected in this assay making a change in Tm unmeasurable).
Data from a single experiment.
(also on this page, place not known: 16.0Thermal 10Thermal stability difference (oC) stability increase (oC))

[3] = tested on: zymosan-induced neutrophil recruitment; assay: Zymosan induced neutrophil recruitment in vivo; parameters: species or system mouse; settings: for percent over bar (inhibition of zymosan-induced neutrophil recruitment): Zymosan 1 µg per mouse i.p.; for CD45+ GR-1+ cells/mL in the peritoneal cavity: zymosan, individual mice
Experimental: Zymosan (R&D Systems) was administered by intraperitoneal injection at a concentration of 1 µg per mouse in PBS (100 µL). […] Four hours after the zymosan challenge, mice were sacrificed and the peritoneal cavity lavaged with 3 mL of FACS buffer. An aliquot (0.3 mL) of lavage fluid was used to assess the number of CD45^+GR1^+ cells by flow cytometry. Briefly, the cells were treated with ACK lysis buffer, washed and suspended in FACS buffer prior to staining with FITC anti-mouse CD45 and PE anti-mouse GR1 (BD Biosciences). Data are shown as mean ± standard error of the number of CD45^+GR-1^+ cells. Statistical significance (*p < 0.05, **p < 0.01, ***p < 0.001 and ****p < 0.0001) was determined using one-way ANOVA with Dunnett’s multiple comparison test.

[4] = target: T1, TNF; assay: Thermal denaturation assay of thermal stability; type: binding; parameters: stabilise an asymmetrical form of the soluble TNF trimer
Experimental: as §1

[5] = target: T1, TNF; assay: Biacore binding with and without non-ionic detergent; parameters: stabilise an asymmetrical form of the soluble TNF trimer; settings: 0.01% v/v Triton X-100 and 0.025% v/v Tween-80; Biacore T200
Experimental: Experiments to show any effect of addition of non-ionic detergent were performed on a Biacore, with human TNF on the solid phase and compounds in solution phase in the presence and absence of 0.01% v/v Triton X-100 and 0.025% v/v Tween-80.
Three Biacore T200s were treated with sodium hypochlorite to remove any traces of detergent. Each machine was equilibrated in either HBS with no detergent (control), HBS:
Tween-P80 (0.025% v/v) or HBS: Triton X-100 (0.01% v/v). Human TNF was tethered to ~ 2000 RU before equilibration in the equivalent control or detergent buffers plus 1% DMSO. […]
were fitted to a BIAevaluation T200 1:1 algorithm and the fitted data shown. […]

[6] = target: T1, TNF; assay: Human TNF induced neutrophil recruitment in vivo; parameters: stabilise an asymmetrical form of the soluble TNF trimer; settings: for CD45+ GR-1+ cells/mL in the peritoneal cavity: human TNF, individual mice
Experimental: All in vivo studies were reviewed by an internal Ethical Review Body (ERB) and conducted in accordance with the Animals (Scientific Procedures) Act 1986, EU Directive 2010/63/EU. […] Anti-TNFα biologics, CDP571[21] (10 mg/kg) and etanercept (30 mg/kg), diluted in PBS, were dosed intravenously prior to human and mouse TNF challenge. Two hours after the TNF challenge, mice were sacrificed and the peritoneal cavity lavaged with 3 mL of FACS buffer. An aliquot (0.3 mL) of lavage fluid was used to assess the number CD45^+GR1^+ cells by flow cytometry. Briefly, the cells were treated with ACK lysis buffer, washed and suspended in FACS buffer prior to staining with FITC anti-mouse CD45 and PE anti-mouse GR1. Data are shown as mean ± standard error of the number of CD45^+GR-1^+ cells. Statistical significance (*p < 0.05, **p < 0.01, ****p < 0.0001) was determined using one-way ANOVA with Dunnett’s multiple comparison test.

[7] = Dynamic light scattering (colloidal aggregation); type: physicochemical; settings: 10 μM; no detergent; 25°C; n=5
Experimental: Dynamic light scattering (DLS) experiments have been performed with compounds […]
baseline control and positive control (miconazole at 100 μM) were included. The radius data […]
compound in the absence of detergent.
DLS data (Malvern Nano ZS). Each sample (150 μl) was measured 5 times in a low volume disposable sizing cuvette at 25°C using 173º non-invasive backscatter (NIBS). […]

SMILES: Cc1ccc(C)c(Cn2c(C(O)c3ccncc3)nc3ccc(-c4cnn(C)c4)cc32)c1 (stereo not shown) [UCB-9260]
- IC50 [1]: 0.202 µM
- inhibition of wild-type TNF ([1]; 10 pM wild-type TNF, HEK NFκΒ reporter): inhibited
- change in Tm of other mouse TNF superfamily members [2]: negligible effect
- percent over bar (inhibition of zymosan-induced neutrophil recruitment) ([3]; 10 mg/kg p.o., 4 hours, mean ± s.e.): 11±14%
- CD45+ GR-1+ cells/mL in the peritoneal cavity ([3]; 10mg/kg): 195599.4 cells/mL and 255505.0 cells/mL and 196418.3 cells/mL and 192743.4 cells/mL and 219374.0 cells/mL and 134444.4 cells/mL and 127176.3 cells/mL and 228610.3 cells/mL
- percent over bar (inhibition of zymosan-induced neutrophil recruitment) ([3]; 30 mg/kg p.o.): 10±16%
- CD45+ GR-1+ cells/mL in the peritoneal cavity ([3]; 30mg/kg): 308000.0 cells/mL and 169293.1 cells/mL and 102620.5 cells/mL and 226129.3 cells/mL and 167710.1 cells/mL and 175546.4 cells/mL and 66491.2 cells/mL and 345608.1 cells/mL
- percent over bar (inhibition of zymosan-induced neutrophil recruitment) ([3]; 100 mg/kg p.o.): 51±10%
- CD45+ GR-1+ cells/mL in the peritoneal cavity ([3]; 100mg/kg): 80477.6 cells/mL and 108548.6 cells/mL and 137240.9 cells/mL and 57696.4 cells/mL and 231185.2 cells/mL and 83347.1 cells/mL and 39698.9 cells/mL and 112119.6 cells/mL
- percent over bar (inhibition of zymosan-induced neutrophil recruitment) ([3]; 300 mg/kg p.o.): 64±4%
- CD45+ GR-1+ cells/mL in the peritoneal cavity ([3]; 300mg/kg): 106121.8 cells/mL and 78357.0 cells/mL and 70745.1 cells/mL and 93070.9 cells/mL and 117333.3 cells/mL and 57439.3 cells/mL and 69649.3 cells/mL and 44069.8 cells/mL
- Tm difference (hTNF + compound) - (hTNF+DMSO) ([4]; DMSO 5%): 17.3 °C
- Tm (mean ± SD) ([4]; hTNF + DMSO (5%) + compound, n=4 replicates): 78.0 ± 0.7 °C
- Tm1 Average ([4]; inhouse hTNF 5% DMSO + compound, 4 wells): 78 °C
- Unreviewed - Tm1 ([4]; single wells, inhouse hTNF 5% DMSO + compound, listed as 1449260-000, in °C): 77.1 and 77.9 and 78.1 and 78.7
- effect of non-ionic detergents on binding to human TNF [5]: does not alter the binding
- CD45+ GR-1+ cells/mL in the peritoneal cavity ([6]; 10mg/kg): 80382.4 cells/mL and 68398.8 cells/mL and 97517.0 cells/mL and 65083.3 cells/mL and 43379.0 cells/mL and 51529.8 cells/mL
- CD45+ GR-1+ cells/mL in the peritoneal cavity ([6]; 30mg/kg): 12661.4 cells/mL and 54428.1 cells/mL and 25233.7 cells/mL and 91899.5 cells/mL and 50362.8 cells/mL and 37741.7 cells/mL
- CD45+ GR-1+ cells/mL in the peritoneal cavity ([6]; 100mg/kg): 14437.1 cells/mL and 19826.5 cells/mL and 38381.4 cells/mL and 4238.2 cells/mL and 19466.7 cells/mL and 51556.6 cells/mL and 16326.3 cells/mL and 11513.0 cells/mL
- CD45+ GR-1+ cells/mL in the peritoneal cavity ([6]; 300mg/kg): 3894.3 cells/mL and 4438.0 cells/mL and 8909.7 cells/mL and 7748.4 cells/mL and 19700.6 cells/mL and 11113.9 cells/mL
- dose with significant inhibition of neutrophil recruitment ([6]; oral, human TNF i.p., CD45+GR1+ cells): 30 mg/kg
- colloidal aggregation (DLS radius) [7]: no evidence of colloidal aggregation
